In patent US20080262041A1, “Beta-Lactams for Treatment of Cns Disorders” (priority 2003, published 2008):
Where two headings read alike, the source gives them in different places.

Key:
[1] = biological target: T1, recombinant human serotonin transporter (Homo sapiens, UniProt P31645); test: hSERT binding affinity, displacement of [3H]-citalopram
T1 construct: expressed in transfected cells; host or cells: porcine LLCPK cells stably transfected with hSERT (membranes)
Description: SERT binding affinity has been determined in vitro by the compounds' ability to displace [^3H]-citalopram from hSERT-LLCPK cell membranes. For the binding reaction, a final concentration of 0.25 nM of [^3H] citalopram (84 Ci/mmol, Amersham) was incubated with 3-5 μg/ml of cell membrane and the compound to be tested at different concentrations (7 concentration points in duplicate) in 50 mM Tris HCl, pH 7.7, containing 120 mM NaCl, 5 mM KCl, 10 μM pargyline and 0.1% ascorbic acid. The reaction was performed for 120 min at 22° C. and was terminated through GF/B Unifilter (pre-soaked in 0.5% PEI) using a Cell Harvester (Tomtec). Scintillation fluid was added to each filtered spot and radioactivity was determined using a scintillation counter (TopCount (Packard)). Non-specific binding was determined using paroxetine (10 μM) and represents about 2-5% of the total binding. Competition experiments were conducted with duplicate determination for each point. Msat601 software package was used to elaborate the competition binding data. IC50 values were converted to Ki values using the Cheng-Prusoff equation and by using the KD of [^3H]citalopram determined in separate experiments.
The affinity of the compounds of the invention for the serotonin transporter was determined using the hSERT binding affinity method and measuring in vitro the compounds' ability to displace [^3H]-citalopram from recombinant human serotonin transporter expressed in Porcine Epithelial Kidney LLCPK cell membranes. The affinity values are expressed as negative logarithm of the inhibition constant of displacer ligands (pKi).

[2] = biological target: T2, recombinant human NK1 receptors (Homo sapiens, UniProt P25103); test: NK1 receptor binding affinity, scintillation proximity assay (SPA), displacement of [125I]Tyr8-Substance P; conditions: average of at least two determinations, CHO cell membranes, read-out: pKi (negative logarithm of the inhibition constant), NK1 receptor SPA binding (converted)
T2 construct: expressed in transfected cells; host or cells: CHO cells (membranes)
T2 sequence (P25103 whole entry): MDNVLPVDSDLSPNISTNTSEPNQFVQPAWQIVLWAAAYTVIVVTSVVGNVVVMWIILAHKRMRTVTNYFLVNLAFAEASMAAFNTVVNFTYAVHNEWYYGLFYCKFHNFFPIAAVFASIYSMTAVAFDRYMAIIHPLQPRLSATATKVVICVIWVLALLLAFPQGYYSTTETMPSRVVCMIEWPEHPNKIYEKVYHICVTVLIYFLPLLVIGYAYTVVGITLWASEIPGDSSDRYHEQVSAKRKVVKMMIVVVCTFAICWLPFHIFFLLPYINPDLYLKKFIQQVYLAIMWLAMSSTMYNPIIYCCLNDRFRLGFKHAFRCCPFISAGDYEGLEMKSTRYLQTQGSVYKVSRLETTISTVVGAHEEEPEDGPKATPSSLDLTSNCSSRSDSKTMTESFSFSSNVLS
From the text: NK1-receptor binding affinity has been determined in vitro in a binding Scintillation proximity assay (SPA) by measuring the compounds' ability to displace [^125I]Tyr8-Substance P (SP) from recombinant human NK1 receptors stably expressed in Chinese Hamster Ovary (CHO) cell membranes prepared by using a modification of the method described by Beattie D. T. et al. (Br. J. Pharmacol, 116:3149-3157, 1995). Briefly, polystyrene Leadseeker WGA-SPA beads (Amersham Biosciences) were mixed with cell membranes in a bead/membrane ratio of 50:1 (w/w) in assay buffer (75 mM Tris pH 7.8, 75 mM NaCl, 4 mM MnCl2, 1 mM EDTA, 0.05% Chaps, 1 mM PMSF). The mixture was placed on ice for 30 minutes to allow the formation of membrane/bead complex before BSA was added to a final concentration of 1%. After another 30 minutes incubation on ice, the bead/membrane complex was washed twice and suspended in assay buffer. [^125I]Tyr8-Substance P (2200 Ci/mmol, PerkinElmer) was then added to the bead/membrane complex with a final concentration of 0.4 nM. 30 ul of the resulting mixture was then dispensed to each well of Nalgen NUNC 384-well plate with 1 ul compound pre-dispensed in DMSO. The plates were then sealed and pulse centrifuged at 1100 rpm. After 3 hours incubation at room temperature with shaking, the plates were centrifuged for 2 min at 1100 rpm and measured in Viewlux imager (PerkinElmer) for 5 minutes with a 618-nm filter. Inhibition of [^125I]Tyr8-Substance P binding to NK1-receptors was measured by the reduction of luminescent signal. IC50 values of each compound were determined by an 11-point 3×-dilution inhibition curve. pKi values were calculated using the KD of [^125I]Tyr8-Substance P determined in a separate experiment.
The affinity of the compound of the invention for the NK1 receptor was determined using the NK1 receptor binding affinity method (Scintillation proximity assay (SPA)) measured in vitro by the compounds' ability to displace [^125I]Tyr8-Substance P (SP) from recombinant human NK1 receptors expressed in Chinese Hamster Ovary (CHO) cell membranes. The affinity values are expressed as negative logarithm of the inhibition constant (pKi) of displacer ligands.

[3] = average of at least two determinations, [3H]-citalopram, LLCPK cell membranes, read-out: pKi, serotonin transporter binding (converted)

T1 sequence (P31645 whole entry): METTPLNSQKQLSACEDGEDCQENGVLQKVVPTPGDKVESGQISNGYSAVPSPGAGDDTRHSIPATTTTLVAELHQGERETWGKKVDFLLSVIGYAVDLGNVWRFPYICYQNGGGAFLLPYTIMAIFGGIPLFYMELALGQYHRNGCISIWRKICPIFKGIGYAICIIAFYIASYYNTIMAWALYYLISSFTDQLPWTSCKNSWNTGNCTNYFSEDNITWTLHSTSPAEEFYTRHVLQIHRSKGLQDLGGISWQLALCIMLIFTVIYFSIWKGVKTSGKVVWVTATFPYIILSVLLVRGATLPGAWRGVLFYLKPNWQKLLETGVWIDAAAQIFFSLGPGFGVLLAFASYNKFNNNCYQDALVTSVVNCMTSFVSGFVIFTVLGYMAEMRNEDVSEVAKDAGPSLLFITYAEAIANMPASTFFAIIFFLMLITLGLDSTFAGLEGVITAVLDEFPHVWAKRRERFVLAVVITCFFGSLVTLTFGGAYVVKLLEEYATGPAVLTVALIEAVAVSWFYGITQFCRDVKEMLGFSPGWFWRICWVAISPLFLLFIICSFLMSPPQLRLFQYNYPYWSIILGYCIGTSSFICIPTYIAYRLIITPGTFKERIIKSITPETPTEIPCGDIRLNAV

| Ki [1, 3] [nM] | SMILES | Ki [2] [nM] | Ki [1] [nM] |
| --- | --- | --- | --- |
| 1.26 to 9.12 | CC(c1cc(Cl)cc(Cl)c1)N1CC=C(C2(c3ccc(F)cc3)CCNCC2)C1=O (single isomer, unassigned) [Example 5, 1-[1-(3,5-Dichlorophenyl)ethyl]-3-[4-(4-fluorophenyl)-4-piperidinyl]-1,5-dihydro-2H-pyrrol-2-one] | 2.24 to 8.51 | – |
| – | CC(c1cc(Cl)cc(Cl)c1)N1CC=C(C2(c3ccc(F)cc3)CCN(C)CC2)C1=O (single isomer, unassigned) [Example 11, 1-[1-(3,5-Dichlorophenyl)ethyl]-3-[4-(4-fluorophenyl)-1-methyl-4-piperidinyl]-1,5-dihydro-2H-pyrrol-2-one] | 2.24 to 8.51 | 1.26 to 9.12 |
| 1.26 to 9.12 | O=C1C(C2(c3ccc(F)cc3)CCNCC2)=CCN1Cc1cc(Cl)cc(Cl)c1 [Example 1, 1-[(3,5-Dichlorophenyl)methyl]-3-[4-(4-fluorophenyl)-4-piperidinyl]-1,5-dihydro-2H-Pyrrol-2-one] | 2.24 to 8.51 | – |
| – | CN1CCC(C2=CCN(Cc3cc(Cl)cc(Cl)c3)C2=O)(c2ccc(F)cc2)CC1 [Example 3, 1-[(3,5-Dichlorophenyl)methyl]-3-[4-(4-fluorophenyl)-1-methyl-4-piperidinyl]-1,5-dihydro-2H-pyrrol-2-one] | 2.24 to 8.51 | 1.26 to 9.12 |
| 1.26 to 9.12 | C[C@@H](c1cc(Cl)cc2ccccc12)N1CC=C(C2(c3ccc(F)cc3)CCNCC2)C1=O [Example 6, 1-[(1S)-1-(3-Chloro-1-naphthalenyl)ethyl]-3-[4-(4-fluorophenyl)-4-piperidinyl]-1,5-dihydro-2H-pyrrol-2-one] | 2.24 to 8.51 | – |
| – | C[C@H](c1cc(Cl)cc2ccccc12)N1CC=C(C2(c3ccc(F)cc3)CCN(C)CC2)C1=O [Example 15, 1-[(1R)-1-(3-Chloro-1-naphthalenyl)ethyl]-3-[4-(4-fluorophenyl)-1-methyl-4-piperidinyl]-1,5-dihydro-2H-pyrrol-2-one] | 2.24 to 8.51 | 1.26 to 9.12 |
| – | CN1CCC(C2=CCN(Cc3cc(C#N)cc4ccccc34)C2=O)(c2ccc(F)cc2)CC1 [Example 16, 4-({3-[4-(4-Fluorophenyl)-1-methyl-4-piperidinyl]-2-oxo-2,5-dihydro-1H-pyrrol-1-yl}methyl)-2-naphthalenecarbonitrile] | 2.24 to 8.51 | 1.26 to 9.12 |
